In US12252524B2, “GIP/GLP1 co-agonist compounds” (Eli Lilly and Company, priority 2018, dated 2025):
Numbered stars: 1 amine (or outer) side, 2 acyl side, 3 side chain; on linkers, the order of the positions; unused ones are H or OH. Square brackets hold non-standard residues; d marks the D form. Side chains are listed from the residue outwards. Peptide text beside a SMILES is read from it. * marks the point of attachment. C20 diacid = O=C(O)CCCCCCCCCCCCCCCCCCC(=O)*; C18 diacid = O=C(O)CCCCCCCCCCCCCCCCC(=O)*; αMePhe(2-F) = C[C@](N)(Cc1ccccc1F)C(=O)O; γGlu = O=C(O)[C@H](CCC(=O)[*:2])N[*:1]; αMeL = CC(C)C[C@](C)(N)C(=O)O; AEEA = NCCOCCOCC(=O)O; Aib = CC(C)(N)C(=O)O

Experiments:
[1] = molecular target: T1, gastric inhibitory peptide receptor (GIPR) (Homo sapiens, UniProt P48546); assay: cAMP pharmacological functional assay in presence of casein, hGIPR; type: cell-based; conditions: HEK293 cells expressing hGIPR, 0.1% Casein, geometric mean; read-out: hGIPR cAMP Rel EC50 nM (SEM, n)
T1 sequence (P48546 22-466): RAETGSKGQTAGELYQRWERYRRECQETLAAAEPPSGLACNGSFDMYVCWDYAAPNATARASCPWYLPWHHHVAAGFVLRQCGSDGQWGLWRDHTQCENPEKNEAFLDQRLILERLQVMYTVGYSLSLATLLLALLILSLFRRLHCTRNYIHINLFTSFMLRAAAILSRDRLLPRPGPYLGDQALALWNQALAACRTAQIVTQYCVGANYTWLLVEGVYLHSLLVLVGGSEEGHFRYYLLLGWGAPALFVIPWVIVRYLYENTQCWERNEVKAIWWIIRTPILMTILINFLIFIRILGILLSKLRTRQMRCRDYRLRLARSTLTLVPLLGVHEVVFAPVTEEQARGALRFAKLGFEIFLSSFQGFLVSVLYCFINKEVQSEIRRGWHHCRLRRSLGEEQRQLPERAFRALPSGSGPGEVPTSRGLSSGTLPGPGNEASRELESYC

[2] = molecular target: T2, human GIP receptor (Homo sapiens, UniProt P48546); assay: [125I]-GIP binding (SPA), human GIP receptor; conditions: read-out: hGIPR Ki, nM (SEM, n)
T2 construct: expressed in transfected cells; crude membranes
T2 sequence (P48546 22-466): T1 sequence (P48546 22-466)

[3] = molecular target: human GLP-1 receptor (GLP-1R) (Homo sapiens, UniProt P43220); assay: cAMP pharmacological functional assay in presence of casein, hGLP-1R; type: cell-based; conditions: HEK293 cells expressing hGLP-1R, 0.1% Casein, geometric mean; read-out: hGLP1R cAMP Rel EC50 nM (SEM, n)
Chain of human GLP-1 receptor (GLP-1R) (P43220 24-463): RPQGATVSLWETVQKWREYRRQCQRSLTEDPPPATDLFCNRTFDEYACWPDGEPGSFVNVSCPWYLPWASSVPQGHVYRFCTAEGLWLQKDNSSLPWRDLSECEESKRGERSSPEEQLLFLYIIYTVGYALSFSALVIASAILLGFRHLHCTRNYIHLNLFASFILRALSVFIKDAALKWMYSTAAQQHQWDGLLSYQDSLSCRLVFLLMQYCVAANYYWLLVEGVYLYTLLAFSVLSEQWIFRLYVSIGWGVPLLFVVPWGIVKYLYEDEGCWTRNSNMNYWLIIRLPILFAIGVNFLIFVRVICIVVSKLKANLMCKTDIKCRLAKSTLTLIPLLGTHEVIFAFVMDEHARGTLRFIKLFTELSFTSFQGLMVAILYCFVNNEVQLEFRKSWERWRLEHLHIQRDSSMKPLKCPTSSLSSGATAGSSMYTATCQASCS

[4] = molecular target: human GLP-1R (Homo sapiens, UniProt P43220); assay: [125I]-GLP-1 binding (SPA), human GLP-1 receptor; design: expressed in transfected cells; crude membranes; conditions: read-out: hGLP1R Ki, (nM) (SEM, n)
Chain of human GLP-1R (P43220 24-463): as above
Outline: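 Membranes: hypotonic lysis (50 mM Tris HCl, pH 7.5, protease inhibitors), Potter-Elvehjem homogenization, high-speed pellet (35000×g 1 h or 25000×g 30 min, 4° C.). Buffer: 25 mM HEPES pH 7.4, 2.5 mM CaCl2, 1 mM MgCl2. Four-parameter IC50 fit; Ki as geometric mean ± SEM.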

[5] = molecular target: T3, human Gcg receptor (Homo sapiens, UniProt P47871); assay: [125I]-Glucagon binding (SPA), human Gcg receptor; conditions: read-out: hGLcgR Ki, nM (SEM, n)
T3 construct: expressed in transfected cells; crude membranes
T3 sequence (P47871 26-477): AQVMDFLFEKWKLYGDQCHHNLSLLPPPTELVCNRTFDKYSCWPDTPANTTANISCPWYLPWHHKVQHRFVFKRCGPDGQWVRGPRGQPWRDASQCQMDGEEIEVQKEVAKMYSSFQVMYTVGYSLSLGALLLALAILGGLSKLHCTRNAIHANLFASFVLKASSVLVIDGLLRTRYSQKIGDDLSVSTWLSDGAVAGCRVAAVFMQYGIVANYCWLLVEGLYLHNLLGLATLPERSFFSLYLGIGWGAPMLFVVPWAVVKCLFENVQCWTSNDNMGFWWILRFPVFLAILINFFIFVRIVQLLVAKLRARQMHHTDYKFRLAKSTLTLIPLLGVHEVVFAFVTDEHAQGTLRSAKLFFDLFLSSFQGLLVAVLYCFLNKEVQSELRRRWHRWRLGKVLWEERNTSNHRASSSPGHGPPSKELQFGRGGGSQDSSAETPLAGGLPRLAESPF
Outline: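 Scintillation counts are taken after membranes and WGA beads incubate and settle for 12 hours at room temperature. Buffer is 25 mM HEPES, pH 7.4, with CaCl2, MgCl2, bacitracin and Tween-20. Ki values, from four-parameter IC50 fits, are geometric means over independent days.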

Structure (SMILES) | EC50 [1] [nM] | Ki [2] [nM] | EC50 [3] [nM] | Ki [4] [nM] | Ki [5] [nM]
CC[C@H](C)[C@H](NC(=O)[C@H](CO)NC(=O)[C@H](CC(=O)O)NC(=O)[C@H](CC(C)C)NC(=O)[C@H](CC(C)C)NC(=O)[C@@H](NC(=O)[C@H](CO)NC(=O)[C@H](Cc1ccc(O)cc1)NC(=O)[C@H](CC(=O)O)NC(=O)[C@H](CO)NC(=O)[C@@H](NC(=O)[C@H](Cc1ccccc1)NC(=O)[C@@H](NC(=O)CNC(=O)[C@H](CCC(=O)O)NC(=O)C(C)(C)NC(=O)[C@@H](N)Cc1ccc(O)cc1)[C@@H](C)O)[C@@H](C)O)[C@@H](C)CC)C(=O)N[C@@H](C)C(=O)N[C@@H](CCC(N)=O)C(=O)NC(C)(C)C(=O)N[C@@H](C)C(=O)N[C@@H](Cc1ccccc1)C(=O)N[C@H](C(=O)N[C@@H](CCC(=O)O)C(=O)N[C@@H](Cc1ccc(O)cc1)C(=O)N[C@@H](CC(C)C)C(=O)N[C@@H](CC(C)C)C(=O)N[C@@H](CCCCNC(=O)COCCOCCNC(=O)COCCOCCNC(=O)CC[C@H](NC(=O)CCCCCCCCCCCCCCCCCCC(=O)O)C(=O)O)C(=O)NC(C)(C)C(=O)NCC(=O)N1CCC[C@H]1C(=O)N[C@@H](CO)C(=O)N[C@@H](CO)C(=O)NCC(=O)N[C@@H](C)C(=O)N1CCC[C@H]1C(=O)N1CCC[C@H]1C(=O)N1CCC[C@H]1C(=O)N[C@@H](CO)C(N)=O)[C@@H](C)CC [Example 11] (H-Y[Aib]EGTFTSDYSILLDSIAQ[Aib]AFIEYLLK([AEEA-AEEA-γGlu-C20 diacid])[Aib]GPSSGAPPPS-NH2) | 0.486 | 0.226 | 6.89 | 15.7 | 174
CC[C@H](C)[C@H](NC(=O)[C@H](CCCCN)NC(=O)[C@H](CC(=O)O)NC(=O)[C@H](CC(C)C)NC(=O)[C@H](CC(C)C)NC(=O)[C@@H](NC(=O)[C@H](CO)NC(=O)[C@H](Cc1ccc(O)cc1)NC(=O)[C@H](CC(=O)O)NC(=O)[C@H](CO)NC(=O)[C@@H](NC(=O)[C@H](Cc1ccccc1)NC(=O)[C@@H](NC(=O)CNC(=O)[C@H](CCC(=O)O)NC(=O)C(C)(C)NC(=O)[C@@H](N)Cc1ccc(O)cc1)[C@@H](C)O)[C@@H](C)O)[C@@H](C)CC)C(=O)N[C@@H](C)C(=O)N[C@@H](CCC(N)=O)C(=O)NC(C)(C)C(=O)N[C@@H](C)C(=O)N[C@@H](Cc1ccccc1)C(=O)N[C@H](C(=O)N[C@@H](CCC(=O)O)C(=O)N[C@@H](Cc1ccc(O)cc1)C(=O)N[C@@H](CC(C)C)C(=O)N[C@H](C(=O)N[C@@H](CCC(=O)O)C(=O)NCC(=O)NCC(=O)N1CCC[C@H]1C(=O)N[C@@H](CO)C(=O)N[C@@H](CO)C(=O)NCC(=O)N[C@@H](C)C(=O)N1CCC[C@H]1C(=O)N1CCC[C@H]1C(=O)N1CCC[C@H]1C(=O)N[C@@H](CCCCNC(=O)COCCOCCNC(=O)COCCOCCNC(=O)CC[C@H](NC(=O)CCCCCCCCCCCCCCCCCCC(=O)O)C(=O)O)C(N)=O)[C@@H](C)CC)[C@@H](C)CC [Example 48] (H-Y[Aib]EGTFTSDYSILLDKIAQ[Aib]AFIEYLIEGGPSSGAPPPK([AEEA-AEEA-γGlu-C20 diacid])-NH2; N-terminus assumed) | 0.168 | 0.074 | 0.691 | 15.7 | 111
CC[C@H](C)[C@H](NC(=O)[C@H](CC(C)C)NC(=O)[C@H](Cc1ccc(O)cc1)NC(=O)[C@H](CCC(=O)O)NC(=O)[C@@H](NC(=O)[C@H](Cc1ccccc1)NC(=O)[C@H](C)NC(=O)C(C)(C)NC(=O)[C@H](CCC(N)=O)NC(=O)[C@H](C)NC(=O)[C@H](CCCCNC(=O)COCCOCCNC(=O)COCCOCCNC(=O)CC[C@H](NC(=O)CCCCCCCCCCCCCCCCC(=O)O)C(=O)O)NC(=O)[C@H](CCC(=O)O)NC(=O)[C@H](CC(=O)O)NC(=O)[C@H](CC(C)C)NC(=O)[C@H](CC(C)C)NC(=O)[C@@H](NC(=O)[C@H](CO)NC(=O)[C@H](Cc1ccc(O)cc1)NC(=O)[C@H](CC(=O)O)NC(=O)[C@H](CO)NC(=O)[C@@H](NC(=O)[C@H](Cc1ccccc1)NC(=O)[C@@H](NC(=O)CNC(=O)[C@H](CCC(=O)O)NC(=O)C(C)(C)NC(=O)[C@@H](N)Cc1ccc(O)cc1)[C@@H](C)O)[C@@H](C)O)[C@@H](C)CC)[C@@H](C)CC)C(=O)N[C@@H](CCC(=O)O)C(=O)NCC(=O)NCC(=O)N1CCC[C@H]1C(=O)N[C@@H](CO)C(=O)N[C@@H](CO)C(=O)NCC(N)=O [Example 268] (H-Y[Aib]EGTFTSDYSILLDEK([AEEA-AEEA-γGlu-C18 diacid])AQ[Aib]AFIEYLIEGGPSSG-NH2) | 0.239 | 0.0814 | 0.0572 | 3.98 | > 1190
CC[C@H](C)[C@H](NC(=O)[C@H](CC(C)C)NC(=O)[C@H](Cc1ccc(O)cc1)NC(=O)[C@@H](CCC(=O)O)NC(=O)[C@@H](NC(=O)[C@H](Cc1ccccc1)NC(=O)[C@H](CCC(=O)O)NC(=O)C(C)(C)NC(=O)[C@H](CCC(N)=O)NC(=O)[C@H](C)NC(=O)[C@H](CCCCNC(=O)COCCOCCNC(=O)COCCOCCNC(=O)CC[C@H](NC(=O)CCCCCCCCCCCCCCCCC(=O)O)C(=O)O)NC(=O)[C@H](CCC(=O)O)NC(=O)[C@H](CC(=O)O)NC(=O)[C@H](CC(C)C)NC(=O)[C@](C)(CC(C)C)NC(=O)[C@@H](NC(=O)[C@H](CO)NC(=O)[C@H](Cc1ccc(O)cc1)NC(=O)[C@H](CC(=O)O)NC(=O)[C@H](CO)NC(=O)[C@@H](NC(=O)[C@](C)(Cc1ccccc1F)NC(=O)[C@@H](NC(=O)CNC(=O)[C@H](CCC(=O)O)NC(=O)C(C)(C)NC(=O)[C@@H](N)Cc1ccc(O)cc1)[C@@H](C)O)[C@@H](C)O)[C@@H](C)CC)[C@@H](C)CC)C(=O)N[C@@H](CCC(=O)O)C(=O)NCC(=O)NCC(=O)N1CCC[C@H]1C(=O)N[C@@H](CO)C(=O)N[C@@H](CO)C(=O)NCC(=O)N[C@@H](C)C(=O)N1CCC[C@H]1C(=O)N1CCC[C@H]1C(=O)N1CCC[C@H]1C(=O)N[C@@H](CO)C(N)=O [Example 221] (H-Y[Aib]EGT[αMePhe(2-F)]TSDYSI[αMeL]LDEK([AEEA-AEEA-γGlu-C18 diacid])AQ[Aib]EFI[dE]YLIEGGPSSGAPPPS-NH2) | 0.0445 | 0.0414 | 0.057 | 1.77 | 154
CC[C@H](C)[C@H](NC(=O)[C@H](CC(C)C)NC(=O)[C@H](Cc1ccc(O)cc1)NC(=O)[C@H](CCC(=O)O)NC(=O)[C@@H](NC(=O)[C@H](Cc1ccccc1)NC(=O)[C@H](Cc1c[nH]cn1)NC(=O)C(C)(C)NC(=O)[C@H](CCC(N)=O)NC(=O)[C@H](C)NC(=O)[C@H](CCCCNC(=O)COCCOCCNC(=O)COCCOCCNC(=O)CC[C@H](NC(=O)CCCCCCCCCCCCCCCCC(=O)O)C(=O)O)NC(=O)[C@H](CCCCN)NC(=O)[C@H](CC(=O)O)NC(=O)[C@H](CC(C)C)NC(=O)[C@H](CC(C)C)NC(=O)[C@@H](NC(=O)[C@H](CO)NC(=O)[C@H](Cc1ccc(O)cc1)NC(=O)[C@H](CC(=O)O)NC(=O)[C@H](CO)NC(=O)[C@@H](NC(=O)[C@H](Cc1ccccc1)NC(=O)[C@@H](NC(=O)CNC(=O)[C@H](CCC(=O)O)NC(=O)C(C)(C)NC(=O)[C@@H](N)Cc1ccc(O)cc1)[C@@H](C)O)[C@@H](C)O)[C@@H](C)CC)[C@@H](C)CC)C(=O)N[C@@H](CCC(=O)O)C(=O)NCC(=O)NCC(=O)N1CCC[C@H]1C(=O)N[C@@H](CO)C(=O)N[C@@H](CO)C(=O)NCC(N)=O [Example 322] (H-Y[Aib]EGTFTSDYSILLDKK([AEEA-AEEA-γGlu-C18 diacid])AQ[Aib]HFIEYLIEGGPSSG-NH2) | 0.146 | 0.175 | 0.711 | 2.31 | 1030
